Measured values reported in US20240400506A1, “DIROXIMEL FUMARATE PARTICLES HAVING IMPROVED FLOW PROPERTIES AND METHODS OF MAKING SAME” (BIOGEN MA INC., priority 2021, published 2024).
Where a name gives a salt, the structure may show the parent alone.

What was measured:
[1] = Particle size distribution (volume diameter D10/D50/D90, span); format: physicochemical; settings: for D10 (values across lots) / span (values across lots): range over the lots of the example; for Final PSD after ripening D10 / Final PSD after ripening D50 / Final PSD after ripening D90: after ripening at 40, 43 or 48 °C
Description: Particle size is expressed in terms of volume diameter, which is used to provide a dimensional description of particles which are non-spherical. “Volume diameter” refers to the diameter of a sphere with equal volume of the non-spherical particle. Particle size can be measured according to methods well known in the art, including a laser diffraction technique that correlates light scattering to particle volume on which effective length or effective diameter is calculated.
Particle size distribution is expressed in terms of D50, D10, D90 and span. “Span” is a measure for particle size distribution. It is calculated according to the following equation: […]
“D50”, also known as the median diameter, corresponds to the value under which 50% of the particles has a lower volume diameter. “D90” corresponds to the value under which 90% of the particles has a lower volume diameter. “D10” corresponds to the value under which 10% of the particles has a lower volume diameter.

[2] = Ring shear test: flow function coefficient and cohesion (Jenike-Johanson RST-XS, ASTM D6773-16); format: physicochemical; settings: neat particles; for average cohesion: four lots (FIG. 3); for average FFc (flow function coefficient): four lots, pre-load 3 kPa (FIG. 2)
Description: “Flow function”, “flow function coefficient”, or FFc is a parameter commonly used to rank the flowability of a particulate sample, which could be a sample of neat API particles or a blend containing API particles plus additives. • Powder flowability is ranked as follows: • FFc<1 not flowing • 1<FFc<2 very cohesive • 2<FFc<4 Cohesive • 4<FFc<10 easy flowing • FFc>10 free flowing The measurement of FFc and Cohesion outlined below follows the procedures described in ASTM D6773-16. […] To test FFc and Cohesion, a particulate sample is added to a commercially available ring shear testing device, such as a Jenike-Johanson RST-XS ring shear tester. Such testing is familiar to the person of ordinary skill in the art. In general, the powder is loaded into an annular trough and a consolidated powder bed is formed. A normal stress (σp) is applied to the consolidated powder bed and the pre-shear stress (ζp) is measured. The normal stress is applied as a vertical load through an annular lid. The shear cell rotates relative to the lid and the torque necessary for shearing is measured. Repeat measurements with a series of values of normal stress are applied. When the measured shear stress values (Y-axis) are plotted as function of applied normal stress values (X-axis), the linear relation between them is called the yield locus. The yield locus line can be used to determine a unique relationship between normal stress and shear stress; this is known as a Mohr circle. The yield locus line represents a tangential line of all Mohr circles. The outer larger radius circle corresponds to pre-shear conditions (σp, ζp) and defines the Major Principal Stress, MPS (σ1). The smaller radius circle defines the Unconfined Yield Stress, UYS (σc). Flow function coefficient or FFc is the ratio of Major Principle Stress (MPS) to the Unconfined Yield Strength (UYS): Cohesion is the propensity for particles within a sample to self-associate or “stick together”. The ring shear tester measures cohesion at the same time that it measure FFc. The intercept of yield locus line at zero normal stress (i.e., where the extrapolation of the yield locus line intercepts the Y axis) is known as powder cohesion, and is expressed in Pascal (Pa) units. Lower cohesion is associated with better powder flowability. Further, cohesion predicts how particulate samples will behave when stored, for example when stored in a silo. […] The flow function coefficient (FFc) was measured as described above to quantify the flow properties of neat diroximel fumarate particles of Example 1 (dry milled) and Example 2 (wet milled and ripened). […]

[3] = final product, wet milled and ripened in IPAC/IPA, 43 °C
[4] = dry milled API, representative commercial lot
[5] = dry milled API, (D90 − D10)/D50
[6] = final PSD after ripening, (D90 − D10)/D50

| D10 (values across lots) [1] | span (values across lots) [1] | average cohesion [2] | average FFc (flow function coefficient) [2] | median particle size D50, in-process after wet milling ([1]; IPAC/IPA slurry, after 23 volume turnovers, before ripening) | Span ([1]; final product, wet milled and ripened in IPAC/IPA) | D10 [1, 3] | D50 [1, 3] | D90 [1, 3] | Final PSD after ripening D10 [1] | Final PSD after ripening D50 [1] | Final PSD after ripening D90 [1] | PSD after wet milling D10 ([1]; before ripening) | PSD after wet milling D50 ([1]; before ripening) | PSD after wet milling D90 ([1]; before ripening) | D10 [1, 4] | D50 [1, 4] | D90 [1, 4] | Span [1, 5] | Span [1, 6] | SMILES |
| --- | --- | --- | --- | --- | --- | --- | --- | --- | --- | --- | --- | --- | --- | --- | --- | --- | --- | --- | --- | --- |
| 16-18 μm | 2.9-3.4 | 270 Pa | less than 4 | – | – | – | – | – | – | – | – | – | – | – | – | – | – | – | – | COC(=O)/C=C/C(=O)OCCN1C(=O)CCC1=O [Example 1, diroximel fumarate] |
| 37.2-41.0 μm | 1.4-1.7 | 219 Pa | about 4 | – | – | – | – | – | – | – | – | – | – | – | – | – | – | – | – | COC(=O)/C=C/C(=O)OCCN1C(=O)CCC1=O [Example 2, diroximel fumarate] |
| – | – | – | – | 43 microns | 1.4 | 40 μm | 92 μm | 173 μm | – | – | – | – | – | – | – | – | – | – | – | COC(=O)/C=C/C(=O)OCCN1C(=O)CCC1=O [Example 6, diroximel fumarate] |
| – | – | – | – | – | – | – | – | – | 37.2 μm | 89.3 μm | 162.5 μm | 11.6 μm | 53.0 μm | 155 μm | 17 μm | 96 μm | 347 μm | 3.4 | 1.4 | COC(=O)/C=C/C(=O)OCCN1C(=O)CCC1=O [compound 1, diroximel fumarate] |
| – | – | – | – | – | – | – | – | – | 40.7 μm | 96.1 μm | 204.5 μm | 12.4 μm | 66.3 μm | 179 μm | 17 μm | 106 μm | 347 μm | 3.1 | 1.7 | COC(=O)/C=C/C(=O)OCCN1C(=O)CCC1=O [compound 2, diroximel fumarate] |
| – | – | – | – | – | – | – | – | – | 41.0 μm | 111.9 μm | 222.9 μm | 9.15 μm | 35.2 μm | 116 μm | 18 μm | 101 μm | 307 μm | 2.9 | 1.6 | COC(=O)/C=C/C(=O)OCCN1C(=O)CCC1=O [compound 3, diroximel fumarate] |
| – | – | – | – | – | – | – | – | – | – | – | – | – | – | – | 16 μm | 95 μm | 302 μm | 3.0 | – | COC(=O)/C=C/C(=O)OCCN1C(=O)CCC1=O [compound 4, diroximel fumarate] |
